This note sets out measurements from patent publication US20220073536A1 (Rigel Pharmaceuticals, Inc., priority 2003, published 2022).

The test system of the test is cultured human mast cells (CHMC). The experiment in a line: CHMC low cell density IgE activation: tryptase assay. Type of test: cell-based. The settings on record: IgE activation. In outline: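 Anti-IgE-driven degranulation of cultured human mast cells at low density, 1000–1500 cells/well, was induced over 30 min at 37 °C. It was scored by supernatant tryptase activity on a fluorogenic substrate.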

The mark [1] stands for this setting: low cell density CHMC, tryptase release, 8 point, read-out: LD Tryptase, CHMC, IgE, 8 pt.
[2] abbreviates: Homo sapiens, Mast cell, low cell density CHMC, tryptase release, 8 pt, read-out: LD Tryptase, CHMC, IgE, 8 pt.
The mark [3] stands for this setting: Homo sapiens, Mast cell, low cell density CHMC, tryptase, 8 pt, read-out: LD Tryptase, CHMC, IgE, 8 pt.
The mark [4] stands for this setting: Homo sapiens, Mast cell, low cell density, 3 pt, read-out: LD Tryptase, CHMC, IgE, 3 pt.
The mark [5] stands for this setting: Homo sapiens, Mast cell, low cell density, 8 pt, read-out: LD Tryptase, CHMC, IgE, 8 pt.
The mark [6] stands for this setting: Homo sapiens, Mast cell, low cell density CHMC, tryptase, 3 pt, read-out: LD Tryptase, CHMC, IgE, 3 pt.
[7] abbreviates: low cell density CHMC, tryptase, 3 pt, read-out: LD Tryptase, CHMC, IgE, 3 pt.
The mark [8] stands for this setting: low cell density CHMC, tryptase, 8 pt, read-out: LD Tryptase, CHMC, IgE, 8 pt.
[9] abbreviates: Homo sapiens, Mast cell, low cell density CHMC, tryptase release, 3 pt, read-out: LD Tryptase, CHMC, IgE, 3 pt.
Setting [10] is: low cell density, 3 pt, read-out: LD Tryptase, CHMC, IgE, 3 pt.
Setting [11] is: low cell density, 8 pt, read-out: LD Tryptase, CHMC, IgE, 8 pt.

Where a name gives a salt, the structure may show the parent alone. Read-outs that look alike come from different tables or passages of the source. Where only a bound is given, the exact number is not on record here.

As to `CNC(=O)Cn1ccc2cc(Nc3ncc(F)c(Nc4ccc(OC(F)(F)F)c(Cl)c4)n3)ccc21` [Compound 651, N4-(3-Chloro-4-trifluoromethoxyphenyl)-5-fluoro-N2-[1-(N-methylamino)carbonylmethyleneindol-5-yl]-2,4-pyrimidinediamine], the IC50 under setting [1] is under 10 µM.

As to `COc1cc(Nc2ncc(F)c(Nc3ccc4c(c3)NC(=O)CS4(=O)=O)n2)cc(OC)c1` [Compound 303], the IC50 under setting [2] was under 10 µM.

As to `O=C1CS(=O)(=O)c2ccc(Nc3nc(Cl)ncc3F)cc2N1` [Compound 315, N2-Chloro-5-fluoro-N4-(1,1,3-trioxo-2H,4H-benzo[1,4]thiazin-6-yl)-4-pyrimidineamine], the IC50 (low cell density CHMC, tryptase release, 3 pt, read-out: LD Tryptase, CHMC, IgE, 3 pt) is over 10 µM.

For the compound `CC(C)n1ncc2ccc(Nc3ncc(F)c(Nc4ccc(Cl)c(Cl)c4)n3)cc21` [Compound 784, N4-(3,4-Dichlorophenyl)-5-fluoro-N2-[1-(1-methylethyl)indazol-6-yl]-2,4-pyrimidinediamine], the IC50 under setting [2] is under 10 µM.

For the compound `Nc1nc(Nc2nc(Nc3ccc(Cl)c(Cl)c3)ncc2F)n[nH]1` [Compound 1254], the IC50 under setting [3] is over 10 µM.

For `COc1cc(Nc2ncc(F)c(Nc3ccc4c(c3)NC(=O)C(C)(C)O4)n2)cc(OC)c1OC` [Compound 543], the IC50 by setting is: under setting [4], under 10 µM; under setting [5], under 10 µM.

In the case of `CCOC(=O)N1CCN(c2cccc(Nc3ncc(F)c(NC4CN(C(=O)OC(C)(C)C)C4)n3)c2)CC1` [Compound 1129], the IC50 under setting [6] is over 10 µM.

On to `C[C@@H]1Oc2ccc(Nc3nc(Nc4ccc5c(c4)nc(C(F)(F)F)n5C)ncc3F)cc2NC1=O` [Compound 914], for which the IC50 under setting [5] was under 10 µM.

As to `CNC(=O)Cn1ccc2cc(Nc3ncc(F)c(Nc4ccc5c(c4)OCCO5)n3)ccc21` [Compound 655, N4-(3,4-Ethylenedioxyphenyl)-5-fluoro-N2-[1-(N-methylamino)carbonylmethyleneindol-5-yl]-2,4-pyrimidinediamine], under setting [1], the IC50 was under 10 µM.

Take “N2- (2,2-Dimethyl-3-oxo-4H-benz[1,4]oxazin-6-yl)-5-fluoro-N4-(4-[N-[methoxycarbonylmethylene]aminocarbonyl]phenyl)-2,4-pyrimidinediamine [Compound 1331]”: the IC50 runs as follows: under setting [7], under 10 µM; under setting [8], under 10 µM.

Consider `COc1cc(Nc2nc(Nc3ccc4cnn(CC5CCCCC5)c4c3)ncc2F)ccc1F` [Compound 725, N2-[1-(Cyclohexylmethyl)indazol-6-yl)-5-fluoro-N4-(4-fluoro-3-methoxyphenyl)-2,4-pyrimidinediamine], for which the IC50 under setting [6] was under 10 µM.

As for `COc1cc(Nc2ncc(F)c(NCC3COc4ccccc4O3)n2)cc(OC)c1` (stereo not shown) [Compound 1258, N4-[ (2,3-Dihydro-1,4-benzodioxan-2-yl)methyl]-N2-(3,5-dimethoxyphenyl)-5-fluoro-2,4-pyrimidinediamine], the IC50 under setting [7] is under 10 µM.

`CCOC(=O)N1CCN(c2cccc(Nc3ncc(F)c(Nc4ccc5c(n4)NC(=O)C(C)(C)O5)n3)c2)CC1` [Compound 1075, N4-(2,2-Dimethyl-3-oxo-4H-5-pyrid[1,4]oxazin-6-yl)-N2-[3-(4-ethoxycarbonylpiperazino)phenyl]-5-fluoro-2,4-pyrimidinediamine]: the IC50 (low cell density CHMC, tryptase readout, 8 pt, read-out: LD Tryptase, CHMC, IgE, 8 pt) is under 10 µM.

Take `Cc1c(O)cccc1Nc1ncc(F)c(Nc2ccc3c(c2)NC(=O)C(C)(C)O3)n1` [Compound 1060, N4-(2,2-Dimethyl-3-oxo-4H-benz[1,4]oxazin-6-yl)-5-fluoro-N2-(3-hydroxy-2-methylphenyl)-2,4-pyrimidinediamine]: the IC50 (Homo sapiens, Mast cell, low cell density CHMC, tryptase readout, 8 pt, read-out: LD Tryptase, CHMC, IgE, 8 pt) is under 10 µM.

`COC(=O)CCNC(=O)c1ccc(Nc2ncc(F)c(Nc3ccc4c(n3)NC(=O)C(C)(C)O4)n2)cc1` [Compound 1312, N4-(2,2-Dimethyl-3-oxo-4H-5-pyrid[1,4]oxazin-6-yl)-5-fluoro-N2-[4-[N-(2-methoxycarbonylethyl)aminocarbonyl]phenyl]-2,4-pyrimidinediamine]: the IC50 under setting [6] was under 10 µM.

As for “N4- (3,4-Dichlorophenyl)-5-fluoro-N2- (4-[N-[methoxycarbonylmethylene]aminocarbonyl]phenyl)-N4-methyl-2,4-pyrimidinediamine [Compound 1348]”, the IC50 under setting [7] was under 10 µM.

Turning to `CCn1c(C)nc2cc(Nc3ncc(F)c(Nc4ccc(OC)c(Cl)c4)n3)ccc21` [Compound 933], the IC50 under setting [4] is under 10 µM.

Turning to `CCN(CC)CCNC(=O)c1ccc(Nc2ncc(F)c(N(C)c3ccc(Cl)c(Cl)c3)n2)cc1` [Compound 1347, N2-(4-[2-[N,N-Diethylamino]ethyleneaminocarbonyl]phenyl)-N4-(3,4-dichlorophenyl)-5-fluoro-N4-methyl-2,4-pyrimidinediamine], the IC50 under setting [7] is under 10 µM.

Consider `COc1cc(Nc2nc(Nc3cc(OC)c(Cl)cc3OC)ncc2F)cc(OC)c1` [Compound 380], for which, under setting [6], the IC50 is under 10 µM.

Take `COc1cc(Nc2ncc(F)c(Nc3ccc4c(c3)NC(=O)C(C)(C)S4)n2)cc(OC)c1OC` [Compound 292]: the IC50 under setting [2] was under 10 µM.

For `COc1cc(Nc2ncc(F)c(Nc3cc(OC)cc(C(F)(F)F)c3)n2)cc(OC)c1` [Compound 332, N2-(3,5-Dimethoxyphenyl)-5-fluoro-N4-(3-methoxy-5-trifluoromethylphenyl)-2,4-pyrimidinediamine], the IC50 under setting [9] was under 10 µM.

As to `Cc1cc(Nc2ncc(F)c(Nc3ccc4c(c3)OC(F)(F)O4)n2)cc(C)c1Cl` [Compound 566], the IC50 (low cell density CHMC, tryptase release, 3 point, read-out: LD Tryptase, CHMC, IgE, 3 pt) was over 10 µM.

With `Cc1cc(N2CCN(C)CC2)ncc1Nc1ncc(F)c(NC2CCC2)n1` [Compound 1245], the IC50 under setting [6] is over 10 µM.

For the compound `OCc1cc(CO)cc(Nc2ncc(F)c(Nc3ccc4c(c3)OC(F)(F)C(F)(F)O4)n2)c1` [Compound 359], the IC50 under setting [8] is under 10 µM.

As for `CNC(=O)COc1cccc(Nc2ncc(F)c(Nc3ccc4c(c3)NC(=O)C(C)S4)n2)c1` (stereo not shown) [Compound 279, 5-Fluoro-N2-[3-(N-methylamino)carbonylmethyleneoxyphenyl]-N4-(2-methyl-3-oxo-2H,4H-benzo[1,4]thiazin-6-yl)-2,4-pyrimidinediamine], the IC50 (low cell density CHMC, tryptase release, 8 pt, read-out: LD Tryptase, CHMC, IgE, 8 pt) was under 10 µM.

With `Cc1cc(C)cc(Nc2ncc(F)c(Nc3ccc4c(c3)NC(=O)C(C)(C)S4(=O)=O)n2)c1` [Compound 268], the IC50 under setting [2] is under 10 µM.

With `Cc1nc2cc(Nc3ncc(F)c(Nc4ccc(Cl)c(Cl)c4)n3)ccc2n1CCCO` [Compound 947], under setting [5], the IC50 was under 10 µM.

Take `COc1ccc(Nc2nc(Nc3ccc4c(cnn4CCCO)c3)ncc2F)cc1Cl` [Compound 828, N4-(3-Chloro-4-methoxyphenyl)-5-fluoro-N2-[1-(3-hydroxypropyl)indazol-5-yl]-2,4-pyrimidinediamine Bis p-Toluenesulfonic Acid Salt]: under setting [2], the IC50 is under 10 µM.

In the case of `Cn1c(CN2CCOCC2)nc2cc(Nc3ncc(F)c(Nc4ccc(Cl)c(Cl)c4)n3)ccc21` [Compound 954, N4-(3,4-Dichlorophenyl)-5-fluoro-N2-[1-methyl-2-(4-morpholinomethyl)benzimidazol-5-yl]-2,4-pyrimidinediamine], the IC50 runs as follows: under setting [10], under 10 µM; under setting [11], under 10 µM.

As for “N2-[3,5-Bis (hydroxymethylene)phenyl]-N4- (3,4-dichlorophenyl)-5-fluoro-2,4-pyrimidinediamine [Compound 346]”, the IC50 under setting [8] was under 10 µM.

As for `Cn1c(=O)[nH]c2cc(Nc3ncc(F)c(Nc4ccc5c(n4)NC(=O)C(C)(C)O5)n3)ccc21` [Compound 908, N4-(2,2-Dimethyl-3-oxo-4H-5-pyrid[1,4]oxazin-6-yl)-N2-(2,3-dihydro-1-methyl-2-oxo-benzimidazol-5-yl)-5-fluoro-2,4-pyrimidinediamine], the IC50 by setting is: under setting [10], under 10 µM; under setting [11], under 10 µM.

Take “N2- (2-Aminocarbonylphenyl)-N4- (2,2-dimethyl-3-oxo-4H-5-pyrid[1,4]oxazin-6-yl)-5-fluoro-2,4-pyrimidinediamine [Compound 1316]”: the IC50 was under 10 µM under setting [7] and over 10 µM under setting [8].

Take `CCN(CC)Cc1nc2cc(Nc3ncc(F)c(Nc4ccc5c(c4)NC(=O)C(C)(C)O5)n3)ccc2n1C` [Compound 972]: the IC50 under setting [4] was under 10 µM and the IC50 under setting [5] was under 10 µM.

With `CNC(=O)c1cc2cccc(Nc3ncc(F)c(Nc4ccc5c(c4)OCO5)n3)c2[nH]1` [Compound 371, 5-Fluoro-N4-(3,4-methylenedioxyphenyl)-N2-[2-(N-methylamino)carbonylindol-7-yl]-2,4-pyrimidinediamine], the IC50 under setting [3] was under 10 µM.

In the case of `Cc1cc(C)cc(N(c2cc(C)cc(C(F)(F)F)c2)c2nc(N)ncc2F)c1` [Compound 330], under setting [9], the IC50 was under 10 µM.

Regarding `Cc1cc(C)cc(Nc2ncc(F)c(Nc3ccc4c(c3)NC(=O)C(C)(C)S4)n2)c1` [Compound 291], the IC50 under setting [2] is under 10 µM.

`Cc1cc(Nc2ncc(F)c(NC(C)(C)C)n2)ccc1N1CCN(C)CC1` [Compound 1218]: the IC50 under setting [3] was under 10 µM.
